{"source": "ChEMBL document CHEMBL3352808", "about": "“Anthraquinone-chalcone hybrids: synthesis, preliminary antiproliferative evaluation and DNA-interaction studies” (Eur J Med Chem, 2015)", "key": {"[1]": {"test": "Cytotoxicity against human LS174 cells assessed as reduction in cell survival after 72 hrs by MTT assay", "format": "functional, cell-based", "details": "LS174, 72 h"}, "MRC5": {"system": "MRC5", "test": "Cytotoxicity against human MRC5 cells assessed as reduction in cell survival after 72 hrs by MTT assay", "format": "cell-based", "details": "MRC5, 72 h"}, "A549 [2]": {"system": "A549", "test": "Cytotoxicity against human A549 cells assessed as reduction in cell survival after 72 hrs by MTT assay", "format": "functional, cell-based", "details": "A549, 72 h"}, "HeLa [3]": {"system": "HeLa", "test": "Cytotoxicity against human HeLa cells assessed as reduction in cell survival after 72 hrs by MTT assay", "format": "functional, cell-based"}, "HeLa [4]": {"system": "HeLa", "test": "Induction of apoptosis in human HeLa cells assessed as increase in p18 Bax level at cytotoxic IC50 level after 24 hrs by Western blotting method", "format": "functional, cell-based"}, "HeLa [5]": {"system": "HeLa", "test": "Induction of cell cycle arrest in human HeLa cells assessed as accumulation at G2/M phase at cytotoxic IC50 level after 24 hrs by propidium iodide staining based flow cytometry (reference value: 24.77%)", "format": "functional"}, "Escherichia coli": {"system": "Escherichia coli", "test": "Induction of DNA cleavage of Escherichia coli pUC19 at 2 mM by agarose gel elctrophoresis method"}, "Calf thymus DNA [6]": {"system": "Calf thymus DNA", "test": "Binding affinity to calf thymus DNA assessed as hyperchromism at 20 to 60 uM by spectroscopy", "format": "nucleic-acid assay", "details": "Bos taurus"}, "HeLa [7]": {"system": "HeLa", "test": "Induction of caspase-3 activation in human HeLa cells assessed as increase in spectrin cleavage product level at cytotoxic IC50 level after 24 hrs by Western blotting method", "format": "functional, cell-based"}, "HeLa [8]": {"system": "HeLa", "test": "Induction of cell cycle arrest in human HeLa cells assessed as accumulation at subG1 phase at 2 times cytotoxic IC50 level after 24 hrs by propidium iodide staining based flow cytometry (reference value: 2.53%)", "format": "functional"}, "HeLa [9]": {"system": "HeLa", "test": "Induction of cell cycle arrest in human HeLa cells assessed as accumulation at S phase at 2 times cytotoxic IC50 level after 24 hrs by propidium iodide staining based flow cytometry (reference value: 14.5%)", "format": "functional"}, "Bos taurus [10]": {"organism": "Bos taurus", "test": "Displacement of Hoechst 33258 from calf thymus DNA at 30 to 60 uM by spectroscopy relative to control"}, "A549 [11]": {"system": "A549", "test": "Induction of apoptosis in human A549 cells assessed as increase in p18 Bax level at cytotoxic IC50 level after 24 hrs by Western blotting method", "format": "functional, cell-based"}, "HeLa [12]": {"system": "HeLa", "test": "Induction of cell cycle arrest in human HeLa cells assessed as accumulation at G1 phase at 2 times cytotoxic IC50 level after 24 hrs by propidium iodide staining based flow cytometry (reference value: 51.33%)", "format": "functional"}, "Bos taurus [13]": {"organism": "Bos taurus", "test": "Displacement of ethidium bromide from calf thymus DNA at 30 to 60 uM by spectroscopy"}, "A549 [14]": {"system": "A549", "test": "Induction of caspase-3 activation in human A549 cells assessed as increase in spectrin cleavage product level at cytotoxic IC50 level after 24 hrs by Western blotting method", "format": "functional, cell-based"}, "HeLa [15]": {"system": "HeLa", "test": "Induction of cell cycle arrest in human HeLa cells assessed as accumulation at G2/M phase at 2 times cytotoxic IC50 level after 24 hrs by propidium iodide staining based flow cytometry (reference value: 24.77%)", "format": "functional"}, "A549 [16]": {"system": "A549", "test": "Induction of apoptosis in human A549 cells assessed as caspase-3 activation at cytotoxic IC50 level after 24 hrs by Western blotting method", "format": "functional, cell-based"}, "HeLa [17]": {"system": "HeLa", "test": "Induction of cell cycle arrest in human HeLa cells assessed as accumulation at G1 phase at cytotoxic IC50 level after 24 hrs by propidium iodide staining based flow cytometry (reference value: 51.33%)", "format": "functional"}, "HeLa [18]": {"system": "HeLa", "test": "Induction of cell cycle arrest in human HeLa cells assessed as accumulation at subG1 phase at cytotoxic IC50 level after 24 hrs by propidium iodide staining based flow cytometry (reference value: 2.53%)", "format": "functional"}, "Calf thymus DNA [19]": {"system": "Calf thymus DNA", "test": "Binding affinity to calf thymus DNA assessed as binding constant at 20 to 60 uM by spectroscopy", "format": "nucleic-acid assay", "details": "Bos taurus"}, "Bos taurus [20]": {"organism": "Bos taurus", "test": "Displacement of Hoechst 33258 from calf thymus DNA at 30 to 60 uM by spectroscopy"}, "HeLa [21]": {"system": "HeLa", "test": "Induction of apoptosis in human HeLa cells assessed as caspase-3 activation at cytotoxic IC50 level after 24 hrs by Western blotting method", "format": "functional, cell-based"}, "HeLa [22]": {"system": "HeLa", "test": "Induction of cell cycle arrest in human HeLa cells assessed as accumulation at S phase at cytotoxic IC50 level after 24 hrs by propidium iodide staining based flow cytometry (reference value: 14.5%)", "format": "functional"}}, "note": "pIC50: −log10 of the molar value. Activity calls are given as the source filed them. The calls are words filed in the database; no cut-off is given here."}
{"smiles": "Cc1ccc(/C=C/C(=O)c2cccc3c2C(=O)c2ccccc2C3=O)cc1", "values": [{"measurement": "pIC50", "setting": "[1]", "value": 4.32}, {"measurement": "pIC50", "setting": "MRC5", "value": 4.30}, {"measurement": "pIC50", "setting": "A549 [2]", "value": 4.42}, {"measurement": "pIC50", "setting": "HeLa [3]", "value": 4.47}]}
{"smiles": "O=C(/C=C/c1ccc(/C=C/C(=O)c2cccc3c2C(=O)c2ccccc2C3=O)cc1)c1ccccc1F", "values": [{"measurement": "pIC50", "setting": "[1]", "value": 4.75}, {"measurement": "pIC50", "setting": "MRC5", "value": 4.50}, {"measurement": "pIC50", "setting": "A549 [2]", "value": 4.50}, {"measurement": "pIC50", "setting": "HeLa [3]", "value": 5.58}]}
{"smiles": "Cc1ccccc1C(=O)/C=C/c1ccc(/C=C/C(=O)c2cccc3c2C(=O)c2ccccc2C3=O)cc1", "values": [{"measurement": "pIC50", "setting": "[1]", "value": 5.50}, {"measurement": "Activity", "setting": "HeLa [4]", "value": "Active"}, {"measurement": "Activity", "setting": "HeLa [5]", "value": 32.79, "unit": "%"}, {"measurement": "Activity", "setting": "Escherichia coli", "value": "inactive"}, {"measurement": "Activity", "setting": "Calf thymus DNA [6]", "value": "Active"}, {"measurement": "Activity", "setting": "HeLa [7]", "value": "Active"}, {"measurement": "Activity", "setting": "HeLa [8]", "value": 7.89, "unit": "%"}, {"measurement": "Activity", "setting": "HeLa [9]", "value": 24.44, "unit": "%"}, {"measurement": "pIC50", "setting": "MRC5", "value": 4.38}, {"measurement": "Imax", "setting": "Bos taurus [10]", "value": 61, "unit": "%"}, {"measurement": "Activity", "setting": "A549 [11]", "value": "inactive"}, {"measurement": "pIC50", "setting": "A549 [2]", "value": 4.54}, {"measurement": "Activity", "setting": "HeLa [12]", "value": 36.75, "unit": "%"}, {"measurement": "Activity", "setting": "Bos taurus [13]", "value": "inactive"}, {"measurement": "Activity", "setting": "A549 [14]", "value": "Active"}, {"measurement": "Activity", "setting": "HeLa [15]", "value": 31.12, "unit": "%"}, {"measurement": "Activity", "setting": "A549 [16]", "value": "Active"}, {"measurement": "Activity", "setting": "HeLa [17]", "value": 38.76, "unit": "%"}, {"measurement": "Activity", "setting": "HeLa [18]", "value": 5.56, "unit": "%"}, {"measurement": "Kb", "setting": "Calf thymus DNA [19]", "value": 1.36, "unit": "×10³ /M"}, {"measurement": "inhibition", "setting": "Bos taurus [20]", "value": "Dose-dependent effect"}, {"measurement": "pIC50", "setting": "HeLa [3]", "value": 5.63}, {"measurement": "Activity", "setting": "HeLa [21]", "value": "Active"}, {"measurement": "Activity", "setting": "HeLa [22]", "value": 17.29, "unit": "%"}]}
{"smiles": "Cc1cccc(C(=O)/C=C/c2ccc(/C=C/C(=O)c3cccc4c3C(=O)c3ccccc3C4=O)cc2)c1", "values": [{"measurement": "pIC50", "setting": "[1]", "value": 4.93}, {"measurement": "pIC50", "setting": "MRC5", "value": 4.28}, {"measurement": "pIC50", "setting": "A549 [2]", "value": 4.47}, {"measurement": "pIC50", "setting": "HeLa [3]", "value": 5.61}]}
{"smiles": "COc1ccc(C(=O)/C=C/c2ccc(/C=C/C(=O)c3cccc4c3C(=O)c3ccccc3C4=O)cc2)cc1", "values": [{"measurement": "pIC50", "setting": "[1]", "value": 4.47}, {"measurement": "pIC50", "setting": "MRC5", "value": 4.32}, {"measurement": "pIC50", "setting": "A549 [2]", "value": 4.32}, {"measurement": "pIC50", "setting": "HeLa [3]", "value": 5.30}]}
{"smiles": "COc1ccccc1C(=O)/C=C/c1ccc(/C=C/C(=O)c2cccc3c2C(=O)c2ccccc2C3=O)cc1", "values": [{"measurement": "pIC50", "setting": "[1]", "value": 4.97}, {"measurement": "pIC50", "setting": "MRC5", "value": 4.36}, {"measurement": "pIC50", "setting": "A549 [2]", "value": 4.55}, {"measurement": "pIC50", "setting": "HeLa [3]", "value": 5.57}]}
{"smiles": "O=C(/C=C/c1ccc(/C=C/C(=O)c2cccc3c2C(=O)c2ccccc2C3=O)cc1)c1ccccc1[N+](=O)[O-]", "values": [{"measurement": "pIC50", "setting": "[1]", "value": 5.19}, {"measurement": "Activity", "setting": "HeLa [4]", "value": "Active"}, {"measurement": "Activity", "setting": "HeLa [5]", "value": 31.41, "unit": "%"}, {"measurement": "Activity", "setting": "Escherichia coli", "value": "inactive"}, {"measurement": "Activity", "setting": "Calf thymus DNA [6]", "value": "Active"}, {"measurement": "Activity", "setting": "HeLa [7]", "value": "Active"}, {"measurement": "Activity", "setting": "HeLa [8]", "value": 5.14, "unit": "%"}, {"measurement": "Activity", "setting": "HeLa [9]", "value": 25.39, "unit": "%"}, {"measurement": "pIC50", "setting": "MRC5", "value": 4.31}, {"measurement": "Imax", "setting": "Bos taurus [10]", "value": 41, "unit": "%"}, {"measurement": "Activity", "setting": "A549 [11]", "value": "inactive"}, {"measurement": "pIC50", "setting": "A549 [2]", "value": 4.54}, {"measurement": "Activity", "setting": "HeLa [12]", "value": 35.58, "unit": "%"}, {"measurement": "Activity", "setting": "Bos taurus [13]", "value": "inactive"}, {"measurement": "Activity", "setting": "A549 [14]", "value": "Active"}, {"measurement": "Activity", "setting": "HeLa [15]", "value": 34.15, "unit": "%"}, {"measurement": "Activity", "setting": "A549 [16]", "value": "Active"}, {"measurement": "Activity", "setting": "HeLa [17]", "value": 41.5, "unit": "%"}, {"measurement": "Activity", "setting": "HeLa [18]", "value": 4.65, "unit": "%"}, {"measurement": "Kb", "setting": "Calf thymus DNA [19]", "value": 2.51, "unit": "×10³ /M"}, {"measurement": "inhibition", "setting": "Bos taurus [20]", "value": "Dose-dependent effect"}, {"measurement": "pIC50", "setting": "HeLa [3]", "value": 5.56}, {"measurement": "Activity", "setting": "HeLa [21]", "value": "Active"}, {"measurement": "Activity", "setting": "HeLa [22]", "value": 17.66, "unit": "%"}]}
{"smiles": "Cc1ccc(C(=O)/C=C/c2ccc(/C=C/C(=O)c3cccc4c3C(=O)c3ccccc3C4=O)cc2)cc1", "values": [{"measurement": "pIC50", "setting": "[1]", "value": 4.65}, {"measurement": "pIC50", "setting": "MRC5", "value": 4.41}, {"measurement": "pIC50", "setting": "A549 [2]", "value": 4.62}, {"measurement": "pIC50", "setting": "HeLa [3]", "value": 5.58}]}
